Source: patent US12570631B2, “Substituted N-(4-(pyrimidin and pyridin-4-yl)benzylcarboxamides and its use for treating disorders responsive to inhibition of Btk” (BIOGEN MA INC., priority 2019, dated 2026)
Where two headings read alike, the source gives them in different places.

Columns and labels:
[1] = test system: CD69 expression on CD19+ B cells in human whole blood; assay: In vitro whole blood CD69 assay; assay type: cell-based; settings: B-cell
BTK = BTK (Homo sapiens (Human), UniProt Q06187); assay: In vitro BTK kinase assay: Btk-PolyGAT-LS assay; assay type: biochemical; settings: ATP 10 μM, polyGAT 100 nM, BTK 0.25 nM, 30 minutes
[2] = Whole Blood CD69 inhibition, human heparinized blood, anti-human IgD stimulation, CD19+ B cells expressing CD69, read-out: IC50

Chain of BTK (Q06187 whole entry): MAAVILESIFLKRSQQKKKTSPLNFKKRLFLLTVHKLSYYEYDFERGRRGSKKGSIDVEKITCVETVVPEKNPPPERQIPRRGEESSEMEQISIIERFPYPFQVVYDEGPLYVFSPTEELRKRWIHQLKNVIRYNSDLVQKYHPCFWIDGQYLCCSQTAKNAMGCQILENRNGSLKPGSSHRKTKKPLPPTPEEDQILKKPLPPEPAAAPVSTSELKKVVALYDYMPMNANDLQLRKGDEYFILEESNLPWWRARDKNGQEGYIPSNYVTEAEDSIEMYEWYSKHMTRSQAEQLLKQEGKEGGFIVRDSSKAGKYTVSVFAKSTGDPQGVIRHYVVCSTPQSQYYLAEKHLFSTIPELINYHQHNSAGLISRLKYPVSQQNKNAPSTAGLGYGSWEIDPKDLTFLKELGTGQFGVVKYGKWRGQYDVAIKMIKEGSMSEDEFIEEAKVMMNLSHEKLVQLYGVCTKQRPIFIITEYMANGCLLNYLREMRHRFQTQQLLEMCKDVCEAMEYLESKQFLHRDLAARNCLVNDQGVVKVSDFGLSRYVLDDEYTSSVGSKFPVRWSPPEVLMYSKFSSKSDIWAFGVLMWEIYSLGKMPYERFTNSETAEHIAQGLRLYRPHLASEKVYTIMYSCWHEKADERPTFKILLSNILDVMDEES

Structure (SMILES) | IC50 [1, 2] | IC50 (BTK) | IC50 ([1]; Homo sapiens)
C=CC(=O)N(C)CCOc1c(N)ncnc1-c1ccc(CNC(=O)c2cnn(C(C)(C)C)c2)c(C)c1 [Example 10, N-(4-(6-amino-5-(2-(N-methylacrylamido)ethoxy)pyrimidin-4-yl)-2-methylbenzyl)-1-(tert-butyl)-1H-pyrazole-4-carboxamide] | < 100 nM | < 1 nM | –
C=CC(=O)N(C)CCOc1cnccc1-c1ccc(CNC(=O)c2noc(C(C)(C)C)n2)c(C)c1F [Example 5, 5-(tert-butyl)-N-(3-fluoro-2-methyl-4-(3-(2-(N-methylacrylamido)ethoxy)pyridin-4-yl)benzyl)-1,2,4-oxadiazole-3-carboxamide] | < 100 nM | < 1 nM | –
C=CC(=O)N(C)CCOc1c(N)ncnc1-c1ccc(CNC(=O)c2noc(C(C)(C)C)n2)c(C)c1 [Example 2, N-(4-(6-amino-5-(2-(N-methylacrylamido)ethoxy)pyrimidin-4-yl)-2-methylbenzyl)-5-(tert-butyl)-1,2,4-oxadiazole-3-carboxamide] | – | < 1 nM | < 100 nM
C=CC(=O)N1CCCC[C@@H]1C(=O)Nc1cnccc1-c1ccc(CNC(=O)c2noc(C(C)(C)C)n2)c(C)c1 [Example 31, (R)-N-(4-(3-(1-acryloylpiperidine-2-carboxamido)pyridin-4-yl)-2-methylbenzyl)-5-(tert-butyl)-1,2,4-oxadiazole-3-carboxamide] | < 100 nM | < 1 nM | –
Cc1cc(-c2ccncc2OC2CCN(C(=O)/C=C/CN(C)C)C2)ccc1CNC(=O)c1cn(C(C)(C)C)nn1 (stereo not shown) [Example 41, (E)-1-(tert-butyl)-N-(4-(3-((1-(4-(dimethylamino)but-2-enoyl)pyrrolidin-3-yl)oxy)pyridin-4-yl)-2-methylbenzyl)-1H-1,2,3-triazole-4-carboxamide] | > 1000 nM | > 10 nM | –
Cc1cc(-c2ccncc2OC2CCN(C(=O)/C=C/CN(C)C)CC2)ccc1CNC(=O)c1cn(C(C)(C)C)nn1 [Example 42, (E)-1-(tert-butyl)-N-(4-(3-((1-(4-(dimethylamino)but-2-enoyl)piperidin-4-yl)oxy)pyridin-4-yl)-2-methylbenzyl)-1H-1,2,3-triazole-4-carboxamide] | 100 to 1000 nM | < 1 nM | –
C=CS(=O)(=O)N1CCCC1COc1cnccc1-c1ccc(CNC(=O)c2cn(C(C)(C)C)nn2)c(C)c1F (stereo not shown) [Example 50, 1-(tert-butyl)-N-(3-fluoro-2-methyl-4-(3-((1-(vinylsulfonyl)pyrrolidin-2-yl)methoxy)pyridin-4-yl)benzyl)-1H-1,2,3-triazole-4-carboxamide] | > 1000 nM | < 1 nM | –
C=CC(=O)N(C)CCOc1c(N)ncnc1-c1ccc(CNC(=O)c2nc(C(C)(C)C)no2)c(C)c1 [Example 7, N-(4-(6-amino-5-(2-(N-methylacrylamido)ethoxy)pyrimidin-4-yl)-2-methylbenzyl)-3-(tert-butyl)-1,2,4-oxadiazole-5-carboxamide] | < 100 nM | < 1 nM | –
